Source: PMC9021288 (Nature Communications, 2022)
Several values for one entry are separate records, joined by “and”; a condition that tells them apart may be missing. Identical values can stand only once. Entries after “also recorded” stand apart in the source; their conditions may differ. Like-named read-outs stand apart in the source and are kept apart here.

Assays:
[1] = test system: human peripheral blood lymphocytes; assay: In vitro micronucleus screening assay
Description: Safety studies were performed by commercial services using their standard protocols. […] Genotoxicity was investigated using the Ames test (Bacterial Reverse Mutation Assay) (Covance Laboratories Ltd, North Yorkshire, England). In vitro mammalian cell micronucleus screening assay was studied in human peripheral blood lymphocytes (BioReliance Corporation, Rockville, USA). Cardiotoxicity was determined against the hERG channel in an automated patch clamp assay using the Qpatch or against the hNaV 1.5, hKV 1.5 and hCaV 1.2 using a manual patch-clamp technique (Metrion Biosciences, Cambridge, UK). Cytotoxicity in human and rat primary hepatocytes was assessed using the CellTiter-Blue assay performed by commercial services (KaLy-Cell). The viability of HepG2 cells was monitored through the addition of 1 mM resazurin. Following 6 h incubation, the relative amount of reduced resazurin was detected in a fluorimeter and compared to the assay controls (vehicle: 0.1% DMSO and positive control: 10 µM puromycin).

[2] = Blood to plasma ratio, rat
[3] = target: T1, panel of human receptors and channels (Homo sapiens, UniProt P29371); assay type: binding; conditions: NK3 (h) (antagonist radioligand); Rep1, Rep2, Mean
T1 construct: purchased Eurofins CEREP

[4] = target: T2, panel of human receptors and channels (Homo sapiens, UniProt P34998); assay type: binding; conditions: CRF1 (h) (agonist radioligand); Rep1, Rep2, Mean
T2 construct: purchased Eurofins CEREP

[5] = target: T3, panel of human receptors and channels (Homo sapiens, UniProt Q9GZV3); assay type: binding; conditions: choline transporter (CHT1) (h) (antagonist radioligand); Rep1, Rep2, Mean
T3 construct: purchased Eurofins CEREP

[6] = target: T4, panel of human receptors and channels (Homo sapiens, UniProt P04150); assay type: binding; conditions: GR (h) (agonist radioligand); Rep1, Rep2, Mean
T4 construct: purchased Eurofins CEREP

[7] = test system: panel of human receptors and channels; assay type: binding; conditions: for % Inhibition of Control Specific Binding: Rep1, Rep2, Mean
[8] = target: T5, panel of human receptors and channels (Homo sapiens, UniProt P30542); assay type: binding; conditions: A1 (h) (antagonist radioligand); Rep1, Rep2, Mean
T5 construct: purchased Eurofins CEREP

[9] = target: T6, panel of human receptors and channels (Homo sapiens, UniProt P32238); assay type: binding; conditions: CCK1 (CCKA) (h) (agonist radioligand); Rep1, Rep2, Mean
T6 construct: purchased Eurofins CEREP

[10] = target: T7, panel of human receptors and channels (Homo sapiens, UniProt P21917); assay type: binding; conditions: D4.4 (h) (antagonist radioligand); Rep1, Rep2, Mean
T7 construct: purchased Eurofins CEREP

[11] = target: T8, panel of human receptors and channels (Homo sapiens, UniProt P21554); assay type: binding; conditions: CB1 (h) (agonist radioligand); Rep1, Rep2, Mean
T8 construct: purchased Eurofins CEREP

[12] = target: T9, panel of human receptors and channels (Homo sapiens, UniProt P08588); assay type: binding; conditions: β1 (h) (agonist radioligand); Rep1, Rep2, Mean
T9 construct: purchased Eurofins CEREP

[13] = target: T10, panel of human receptors and channels (Homo sapiens, UniProt P34981); assay type: binding; conditions: TRH1 (h) (agonist radioligand); Rep1, Rep2, Mean
T10 construct: purchased Eurofins CEREP

[14] = target: T11, panel of human receptors and channels (Homo sapiens, UniProt P24530); assay type: binding; conditions: ETB (h) (agonist radioligand); Rep1, Rep2, Mean
T11 construct: purchased Eurofins CEREP

[15] = 4-hour treatment + S9, 13.6 ug/ml
[16] = 4-hour treatment + S9, 19.4 ug/ml
[17] = 4-hour treatment + S9, 27.7 ug/ml
[18] = 4-hour treatment + S9, 39.5 ug/ml
[19] = 4-hour treatment + S9, 56.5 ug/ml
[20] = 4-hour treatment + S9, 80.7 ug/ml
[21] = 4-hour treatment + S9, 115 ug/ml
[22] = 4-hour treatment + S9, 165 ug/ml
[23] = 4-hour treatment + S9, 235 ug/ml
[24] = 4-hour treatment + S9, 336 ug/ml
[25] = 4-hour treatment + S9, 480 ug/ml
[26] = 4-hour treatment + S9, 686 ug/ml
[27] = 4-hour treatment + S9, 980 ug/ml
[28] = 4-hour treatment + S9, 1400 ug/ml
[29] = 4-hour treatment + S9, 2000 ug/ml
[30] = 4-hour treatment - S9, 13.6 ug/ml
[31] = 4-hour treatment - S9, 19.4 ug/ml
[32] = 4-hour treatment - S9, 27.7 ug/ml
[33] = 4-hour treatment - S9, 39.5 ug/ml
[34] = 4-hour treatment - S9, 56.5 ug/ml
[35] = 4-hour treatment - S9, 80.7 ug/ml
[36] = 4-hour treatment - S9, 115 ug/ml
[37] = 4-hour treatment - S9, 165 ug/ml
[38] = 4-hour treatment - S9, 235 ug/ml
[39] = 4-hour treatment - S9, 336 ug/ml
[40] = 4-hour treatment - S9, 480 ug/ml
[41] = 4-hour treatment - S9, 686 ug/ml
[42] = 4-hour treatment - S9, 980 ug/ml
[43] = 4-hour treatment - S9, 1400 ug/ml
[44] = 4-hour treatment - S9, 2000 ug/ml

T3 sequence (Q9GZV3 whole entry): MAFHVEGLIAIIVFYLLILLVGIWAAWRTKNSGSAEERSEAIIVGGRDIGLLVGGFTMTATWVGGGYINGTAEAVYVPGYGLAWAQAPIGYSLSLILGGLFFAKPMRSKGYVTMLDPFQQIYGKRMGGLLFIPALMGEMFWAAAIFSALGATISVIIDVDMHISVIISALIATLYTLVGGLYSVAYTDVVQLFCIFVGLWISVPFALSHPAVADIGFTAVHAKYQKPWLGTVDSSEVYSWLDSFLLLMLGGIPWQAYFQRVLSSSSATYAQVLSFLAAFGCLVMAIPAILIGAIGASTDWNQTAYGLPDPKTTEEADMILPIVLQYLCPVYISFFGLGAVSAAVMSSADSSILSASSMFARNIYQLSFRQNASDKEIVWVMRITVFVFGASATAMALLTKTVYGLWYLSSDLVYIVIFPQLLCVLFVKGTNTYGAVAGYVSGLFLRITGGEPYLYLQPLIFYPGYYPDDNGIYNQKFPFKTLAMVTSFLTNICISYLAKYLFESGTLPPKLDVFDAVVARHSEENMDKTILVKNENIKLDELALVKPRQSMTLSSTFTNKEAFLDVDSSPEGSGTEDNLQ
T6 sequence (P32238 whole entry): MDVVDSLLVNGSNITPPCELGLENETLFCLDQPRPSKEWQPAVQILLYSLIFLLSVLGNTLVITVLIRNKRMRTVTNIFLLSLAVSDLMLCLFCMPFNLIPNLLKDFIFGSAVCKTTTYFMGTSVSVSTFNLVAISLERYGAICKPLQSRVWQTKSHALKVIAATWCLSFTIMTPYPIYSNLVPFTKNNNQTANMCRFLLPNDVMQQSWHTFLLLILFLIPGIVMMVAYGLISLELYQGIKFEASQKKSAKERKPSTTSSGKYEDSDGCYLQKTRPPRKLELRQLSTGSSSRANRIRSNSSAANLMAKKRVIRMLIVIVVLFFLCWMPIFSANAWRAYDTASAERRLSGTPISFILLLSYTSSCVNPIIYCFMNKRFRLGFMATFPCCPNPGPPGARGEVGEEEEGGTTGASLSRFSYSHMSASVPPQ
T5 sequence (P30542 whole entry): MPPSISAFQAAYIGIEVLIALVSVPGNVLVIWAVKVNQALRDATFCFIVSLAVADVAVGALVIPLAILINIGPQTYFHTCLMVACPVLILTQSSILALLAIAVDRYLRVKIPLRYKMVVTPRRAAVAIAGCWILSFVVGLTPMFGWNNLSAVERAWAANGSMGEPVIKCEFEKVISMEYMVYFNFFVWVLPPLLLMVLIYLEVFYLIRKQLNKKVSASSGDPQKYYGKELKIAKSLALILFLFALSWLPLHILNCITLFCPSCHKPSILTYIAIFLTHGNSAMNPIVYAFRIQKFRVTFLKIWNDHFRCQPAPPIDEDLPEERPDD
T2 sequence (P34998 24-415): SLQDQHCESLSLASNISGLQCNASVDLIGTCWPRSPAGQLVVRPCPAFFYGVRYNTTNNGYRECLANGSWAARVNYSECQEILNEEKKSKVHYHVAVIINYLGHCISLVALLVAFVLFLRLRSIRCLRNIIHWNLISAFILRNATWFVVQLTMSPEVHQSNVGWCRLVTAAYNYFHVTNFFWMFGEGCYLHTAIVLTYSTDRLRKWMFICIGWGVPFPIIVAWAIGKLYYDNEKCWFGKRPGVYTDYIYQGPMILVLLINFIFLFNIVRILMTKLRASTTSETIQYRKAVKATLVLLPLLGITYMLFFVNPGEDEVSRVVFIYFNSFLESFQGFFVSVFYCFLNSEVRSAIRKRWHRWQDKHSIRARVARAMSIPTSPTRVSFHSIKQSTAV
T9 sequence (P08588 whole entry): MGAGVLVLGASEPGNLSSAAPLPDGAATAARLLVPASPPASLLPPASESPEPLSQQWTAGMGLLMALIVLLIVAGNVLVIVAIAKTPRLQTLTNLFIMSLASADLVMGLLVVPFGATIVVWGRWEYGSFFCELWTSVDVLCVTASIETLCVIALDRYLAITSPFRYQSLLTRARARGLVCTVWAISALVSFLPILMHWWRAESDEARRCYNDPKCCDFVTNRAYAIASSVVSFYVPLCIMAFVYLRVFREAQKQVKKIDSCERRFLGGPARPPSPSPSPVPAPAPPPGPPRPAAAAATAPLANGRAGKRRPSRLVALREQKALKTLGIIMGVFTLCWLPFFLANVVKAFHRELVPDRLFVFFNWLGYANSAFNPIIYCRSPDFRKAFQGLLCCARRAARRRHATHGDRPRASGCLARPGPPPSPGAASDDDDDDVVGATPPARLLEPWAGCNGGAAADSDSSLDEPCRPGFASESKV
T1 sequence (P29371 whole entry): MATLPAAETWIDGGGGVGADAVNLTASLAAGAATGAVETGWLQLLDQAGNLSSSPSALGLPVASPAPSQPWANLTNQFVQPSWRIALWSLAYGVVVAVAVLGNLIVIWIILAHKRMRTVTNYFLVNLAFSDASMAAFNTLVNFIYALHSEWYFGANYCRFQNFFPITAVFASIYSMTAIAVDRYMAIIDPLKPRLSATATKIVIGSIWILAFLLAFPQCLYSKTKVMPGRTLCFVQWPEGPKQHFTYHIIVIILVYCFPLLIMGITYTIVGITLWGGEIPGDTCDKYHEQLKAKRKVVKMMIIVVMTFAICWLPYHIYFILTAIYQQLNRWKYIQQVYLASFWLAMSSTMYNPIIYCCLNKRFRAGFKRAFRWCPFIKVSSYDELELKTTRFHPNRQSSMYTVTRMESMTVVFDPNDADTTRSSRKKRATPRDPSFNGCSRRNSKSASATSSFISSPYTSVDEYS
T10 sequence (P34981 whole entry): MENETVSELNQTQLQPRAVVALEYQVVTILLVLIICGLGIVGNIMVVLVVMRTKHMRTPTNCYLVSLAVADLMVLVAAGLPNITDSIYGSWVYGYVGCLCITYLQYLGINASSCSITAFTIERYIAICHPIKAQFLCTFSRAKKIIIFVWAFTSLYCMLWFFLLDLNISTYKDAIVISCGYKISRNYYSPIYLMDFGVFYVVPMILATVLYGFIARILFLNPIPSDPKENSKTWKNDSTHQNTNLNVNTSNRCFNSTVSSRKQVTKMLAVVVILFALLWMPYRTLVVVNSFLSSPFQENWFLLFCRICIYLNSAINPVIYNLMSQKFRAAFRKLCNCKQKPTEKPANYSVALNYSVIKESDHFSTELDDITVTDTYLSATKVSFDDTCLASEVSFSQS
T7 sequence (P21917 whole entry): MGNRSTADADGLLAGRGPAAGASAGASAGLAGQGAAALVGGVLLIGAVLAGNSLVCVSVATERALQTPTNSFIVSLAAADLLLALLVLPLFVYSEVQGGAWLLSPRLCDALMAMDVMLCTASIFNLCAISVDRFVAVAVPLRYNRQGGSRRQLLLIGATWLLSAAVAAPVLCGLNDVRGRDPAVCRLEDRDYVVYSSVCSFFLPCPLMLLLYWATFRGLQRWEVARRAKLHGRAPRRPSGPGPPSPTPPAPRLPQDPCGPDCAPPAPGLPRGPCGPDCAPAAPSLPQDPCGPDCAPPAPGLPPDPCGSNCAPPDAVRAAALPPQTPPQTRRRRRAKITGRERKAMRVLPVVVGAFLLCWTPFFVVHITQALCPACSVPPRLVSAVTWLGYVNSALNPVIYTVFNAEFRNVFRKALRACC
T4 sequence (P04150 whole entry): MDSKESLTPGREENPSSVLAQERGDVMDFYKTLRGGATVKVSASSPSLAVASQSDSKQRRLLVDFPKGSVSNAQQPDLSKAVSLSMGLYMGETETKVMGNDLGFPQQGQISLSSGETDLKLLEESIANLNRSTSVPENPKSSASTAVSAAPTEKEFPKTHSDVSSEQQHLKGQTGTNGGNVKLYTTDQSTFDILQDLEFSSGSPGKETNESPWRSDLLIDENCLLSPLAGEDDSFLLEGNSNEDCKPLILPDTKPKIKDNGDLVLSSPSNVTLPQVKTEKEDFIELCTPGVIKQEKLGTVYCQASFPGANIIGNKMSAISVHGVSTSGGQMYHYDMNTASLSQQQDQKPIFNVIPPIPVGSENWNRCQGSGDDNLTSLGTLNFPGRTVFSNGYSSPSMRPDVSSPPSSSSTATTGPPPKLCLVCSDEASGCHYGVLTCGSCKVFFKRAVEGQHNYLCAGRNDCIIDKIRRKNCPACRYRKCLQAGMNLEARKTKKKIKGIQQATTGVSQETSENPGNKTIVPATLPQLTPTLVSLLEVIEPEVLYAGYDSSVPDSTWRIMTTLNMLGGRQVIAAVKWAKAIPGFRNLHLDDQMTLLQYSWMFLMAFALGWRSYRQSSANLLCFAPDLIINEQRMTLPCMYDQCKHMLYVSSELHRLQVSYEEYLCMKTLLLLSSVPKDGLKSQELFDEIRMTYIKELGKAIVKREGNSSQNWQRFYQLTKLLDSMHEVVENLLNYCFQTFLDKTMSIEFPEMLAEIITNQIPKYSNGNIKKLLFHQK
T11 sequence (P24530 27-442): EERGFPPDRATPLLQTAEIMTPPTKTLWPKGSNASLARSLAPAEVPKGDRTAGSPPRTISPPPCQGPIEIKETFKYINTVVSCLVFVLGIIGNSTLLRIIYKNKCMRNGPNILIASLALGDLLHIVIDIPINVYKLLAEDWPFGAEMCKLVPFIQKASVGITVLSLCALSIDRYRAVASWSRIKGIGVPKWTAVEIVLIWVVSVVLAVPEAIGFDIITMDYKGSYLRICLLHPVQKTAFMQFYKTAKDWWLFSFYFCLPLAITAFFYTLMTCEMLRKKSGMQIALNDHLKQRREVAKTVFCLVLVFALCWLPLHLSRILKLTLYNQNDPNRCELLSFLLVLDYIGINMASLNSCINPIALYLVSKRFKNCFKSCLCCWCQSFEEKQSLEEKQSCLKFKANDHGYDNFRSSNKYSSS

## C[C@@H](CNC(=O)[C@H](O)C(C)(C)CO)NC(=O)c1cc(F)c(F)cc1F [MMV693183]
[1]; [15]
  CBPI: 1.808
  Cytotoxicity (%): 12%
[1]; [16]
  CBPI: 1.792
  Cytotoxicity (%): 14%
[1]; [17]
  CBPI: 1.76
  Cytotoxicity (%): 17%
[1]; [18]
  CBPI: 1.788
  Cytotoxicity (%): 14%
[1]; [19]
  CBPI: 1.84
  Cytotoxicity (%): 9%
[1]; [20]
  CBPI: 1.792
  Cytotoxicity (%): 14%
[1]; [21]
  CBPI: 1.86
  Cytotoxicity (%): 7%
[1]; [22]
  CBPI: 1.824
  Cytotoxicity (%): 10%
[1]; [23]
  CBPI: 1.772
  Cytotoxicity (%): 16%
[1]; [24]
  CBPI: 1.824
  Cytotoxicity (%): 10%
[1]; [25]
  CBPI: 1.848
  Cytotoxicity (%): 8%
  Percentage of MNBN Cells/Total BN Cells counted (%): 0.4%
[1]; [26]
  CBPI: 1.824
  Cytotoxicity (%): 10%
[1]; [27]
  CBPI: 1.84
  Cytotoxicity (%): 9%
[1]; [28]
  CBPI: 1.836
  Cytotoxicity (%): 9%
  Percentage of MNBN Cells/Total BN Cells counted (%): 0.6%
[1]; [29]
  CBPI: 1.388
  Cytotoxicity (%): 58%
  Percentage of MNBN Cells/Total BN Cells counted (%): 0.4%
[1]; [30]
  CBPI: 1.916
  Cytotoxicity (%): 0%
[1]; [31]
  CBPI: 1.86
  Cytotoxicity (%): 6%
[1]; [32]
  CBPI: 1.912
  Cytotoxicity (%): 0%
[1]; [33]
  CBPI: 1.832
  Cytotoxicity (%): 9%
[1]; [34]
  CBPI: 1.864
  Cytotoxicity (%): 6%
[1]; [35]
  CBPI: 1.876
  Cytotoxicity (%): 4%
[1]; [36]
  CBPI: 1.88
  Cytotoxicity (%): 4%
[1]; [37]
  CBPI: 1.804
  Cytotoxicity (%): 12%
[1]; [38]
  CBPI: 1.84
  Cytotoxicity (%): 8%
[1]; [39]
  CBPI: 1.792
  Cytotoxicity (%): 14%
[1]; [40]
  CBPI: 1.8
  Cytotoxicity (%): 13%
  Percentage of MNBN Cells/Total BN Cells counted (%): 0.4%
[1]; [41]
  CBPI: 1.832
  Cytotoxicity (%): 9%
[1]; [42]
  CBPI: 1.808
  Cytotoxicity (%): 12%
[1]; [43]
  CBPI: 1.704
  Cytotoxicity (%): 23%
  Percentage of MNBN Cells/Total BN Cells counted (%): 0.4%
[1]; [44]
  CBPI: 1.496
  Cytotoxicity (%): 46%
  Percentage of MNBN Cells/Total BN Cells counted (%): 0.4%
[1]; up to 2000 µg/ml, with or without S-9
  micronucleus test result: No induction of micronuclei; also recorded: negative
[2]
  B:P: 0.91
[3]
  % Inhibition of Control Specific Binding: -0.9% and 5.3% and 2.2%
[4]
  % Inhibition of Control Specific Binding: 16.8% and 10.5% and 13.65%
[5]
  % Inhibition of Control Specific Binding: 2.6% and 4.5% and 3.55%
[6]
  % Inhibition of Control Specific Binding: -7.3%
[7]; 10 µM
  induction, GABA (non-selective): 25.2%
  inhibition in cross-reactivity panel of human receptors, enzymes, or channels: < 50%
  inhibition/induction, all other binding assays: less than 25%
[7]; AMPA (agonist radioligand)
  % Inhibition of Control Specific Binding: -3.3% and 6.3% and 1.5%
[7]; BZD (central) (agonist radioligand)
  % Inhibition of Control Specific Binding: -6% and -2.2% and -4.1%
[7]; Ca2+ channel (L, dihydropyridine site) (antagonist radioligand)
  % Inhibition of Control Specific Binding: -8.8% and -2.1% and -5.45%
[7]; Ca2+ channel (L, diltiazem site) (benzothiazepines) (antagonist radioligand)
  % Inhibition of Control Specific Binding: -0.7% and -8.5% and -4.6%
[7]; Ca2+ channel (L, verapamil site) (phenylalkylamine) (antagonist radioligand)
  % Inhibition of Control Specific Binding: -8.2% and -3.1% and -5.65%
[7]; Cl- channel (GABA-gated) (antagonist radioligand)
  % Inhibition of Control Specific Binding: 3.7% and 11.5% and 7.6%
[7]; D2S (h) (antagonist radioligand)
  % Inhibition of Control Specific Binding: 8.5% and 10.6% and 9.55%
[7]; GABA transporter (antagonist radioligand)
  % Inhibition of Control Specific Binding: -5.4% and -8% and -6.7%
[7]; IP (PGI2) (h) (agonist radioligand)
  % Inhibition of Control Specific Binding: 1.7% and -1% and 0.35%
[7]; KV channel (antagonist radioligand)
  % Inhibition of Control Specific Binding: 1.3% and -0.6% and 0.35%
[7]; MT1 (ML1A) (h) (agonist radioligand)
  % Inhibition of Control Specific Binding: -0.2% and 6.2% and 3%
[7]; NMDA (antagonist radioligand)
  % Inhibition of Control Specific Binding: -6% and -8.3% and -7.15%
[7]; Na+ channel (site 2) (antagonist radioligand)
  % Inhibition of Control Specific Binding: 17.2% and 13.3% and 15.25%
[7]; P2Y (agonist radioligand)
  % Inhibition of Control Specific Binding: -7.4% and -3% and -5.2%
[7]; SKCa channel (antagonist radioligand)
  % Inhibition of Control Specific Binding: -1.2% and 2.1% and 0.45%
[7]; Y (non-selective) (agonist radioligand)
  % Inhibition of Control Specific Binding: -24.9% and -15.9% and -20.4%
[7]; kainate (agonist radioligand)
  % Inhibition of Control Specific Binding: -0.8% and 7.7% and 3.45%
[7]; opioid (non-selective) (antagonist radioligand)
  % Inhibition of Control Specific Binding: 4.1% and 0.3% and 2.2%
[7]; α1 (non-selective) (antagonist radioligand)
  % Inhibition of Control Specific Binding: 2.6% and 11.7% and 7.15%
[7]; α2 (non-selective) (antagonist radioligand)
  % Inhibition of Control Specific Binding: -11.5% and -12.5% and -12%
[8]
  % Inhibition of Control Specific Binding: -9.6% and -3.5% and -6.55%
[9]
  % Inhibition of Control Specific Binding: -13.7% and -11% and -12.35%
[10]
  % Inhibition of Control Specific Binding: -1.9% and 2.9% and 0.5%
[11]
  % Inhibition of Control Specific Binding: -14.2%
[12]
  % Inhibition of Control Specific Binding: 13.7% and 4.9% and 9.3%
[13]
  % Inhibition of Control Specific Binding: -6.1% and -7.7% and -6.9%
[14]
  % Inhibition of Control Specific Binding: -8.6%
